{"source": "patent US12594258B2", "about": "“Inhibitors of MHC-I Nef downmodulation for treating HIV” (priority 2019, dated 2026)", "key": {"CEM-A2 cells": {"test_system": "CEM-A2 cells", "experiment": "Lysotracker Red and Nef activity in CEM-A2 cells", "type": "cell-based, human", "settings": "1.25 nM", "method": "Cells were treated with plecomacrolides at a density of 1×10^6 cells/mL for 24 hours, then treated with 100 nM LysoTracker Red DND-99 (Fisher, L7528) in PBS at a density of 1×10^6 cells/mL for 1 hour at 37° C., washed twice in PBS, and fixed in 2% PFA before flow cytometric analysis on a BioRad Ze5 flow cytometer.\nTo test this directly, CEM-A2 cells transduced with an adenoviral vector expressing Nef were used. This system has been used to study the formation of the AP-1:Nef:MHC-I complex under conditions where ammonium chloride prevents lysosomal degradation. Higher concentrations of CMA were required for reversal of Nef activity in CEM cells. […] This is functionally similar to 0.5 nM CMA treatment in CD4^+ T cells."}, "AP-1:Nef:MHC-I complex": {"test_system": "AP-1:Nef:MHC-I complex", "experiment": "HLA-A2 coimmunoprecipitation in CEM-A2 cells expressing Nef", "type": "cell-based", "settings": "1.25 nM, compared to NH4Cl", "method": "Immunoprecipitation of CEM cell lysates with BB7.2-conjugated beads was performed as previously described. Briefly, 25×10^6 CEM-A2 cells were transduced with Nef-expressing or control adenovirus. 48 hours post-infection, cells were counted and resuspended at a density of 1×10^6 cells/mL R10 supplemented with 35 mM NH4Cl, 1.25 nM CMA, or solvent control for 24 hours. Cells were pelleted, washed twice in PBS, and lysed in 1% digitonin lysis buffer (1% digitonin (Wako, 043-21371), 100 mM NaCl, 50 mM Tris, pH 7.0, 1 mM CaCl2, and 1 mM MgCl2) as previously described. 1% of the lysate was removed for input controls. […] After pulldown, resin was washed five times in 0.1% digitonin wash buffer, and proteins were eluted by incubating in 150 mM dithiothreitol (Invitrogen) for 30 minutes at 37° C. and analyzed by western blot.\nHLA-A2 Coimmunoprecipitation. […] Then, 48 h post infection, cells were counted and resuspended at a density of 1×10^6 cells per milliliter R10 supplemented with 35 mM NH4Cl, 1.25 nM CMA, or solvent control for 24 h. […] After pulldown, resin was washed five times in 0.1% digitonin wash buffer, and proteins were eluted by incubating in 150 mM dithiothreitol (DTT) for 30 min at 37° C. and analyzed by Western blot."}, "[1]": {"experiment": "Mouse in vivo tolerability", "parameters": "species or system mice", "method": "FIG. 8A is a schematic representation of experiments for FIG. 8B-D. Five mice per group received injections of CMA every 2 days for 10 doses. Blood plasma and lymph nodes were harvested from mice sacrificed 2 hours after the final injection.\nMouse in vivo Assays. To further examine the tolerability of CMA, preliminary studies were performed in two groups of mice injected with different doses of CMA every other day for 18 days (FIG. 8A). […] In a separate experiment, plasma harvested from treated mice inhibited Nef in our in vitro assay (FIG. 8F). Taken together, these promising preliminary studies provide evidence that CMA is both efficacious and tolerable in vivo."}}, "data": [{"smiles": "C/C=C/[C@H]1O[C@@](O)([C@@H](C)[C@H](O)[C@H](C)[C@H]2OC(=O)/C(OC)=C/C(C)=C/[C@@H](C)[C@@H](O)[C@@H](CC)[C@@H](O)[C@H](C)C/C(C)=C/C=C/[C@@H]2OC)C[C@@H](O[C@H]2C[C@@H](O)[C@H](OC(N)=O)[C@@H](C)O2)[C@@H]1C", "note": "[CMA, concanamycin A]", "values": [{"measurement": "Nef inhibition versus intracellular acidification", "setting": "CEM-A2 cells", "value": "inhibited Nef without significantly altering intracellular acidification"}, {"measurement": "abundance of Nef and AP-1 subunits associating with HLA-A2", "setting": "AP-1:Nef:MHC-I complex", "value": "reproducible reduction in the abundance of Nef, AP-1μ, and AP-1μ1 subunits associating with HLA-A2"}, {"measurement": "toxicity based on behavior, fur and weight loss", "setting": "[1]; two doses, injected every other day for 18 days", "value": "Neither dose showed toxicity"}, {"measurement": "body mass", "setting": "[1]; weighed prior to each dose", "value": "no loss in body mass and no dose effect"}]}]}
